Earlier results, collected in patent US20220193028A1, “THERAPEUTIC COMBINATIONS, LIQUID PHARMACEUTICAL COMPOSITIONS, KITS FOR THEIR PREPARATION, AND METHODS OF THEIR USE” (priority 2019, published 2022).

Target: AMPA receptor
Details: non-competitive selective allosteric modulator of the AMPA receptor; read-out: IC50 (block of glutamate induced currents)

## N#Cc1ccccc1-c1cc(-c2ccccn2)cn(-c2ccccc2)c1=O [perampanel]
  IC50: ~560 nM
